A short description of data set [1]: Ex vivo biodistribution in naïve mice. To be noted: i.v. Also on record: species or system CD-1 mice. Here is the method: [ ^ 18 F]-SK60 (151 ± 37.0 kBq) diluted in 200 μL of sterile isotonic saline was injected into the tail vein of restrained, awake mice. The animals were anesthetized with isoflurane at 5 (n = 2), 15 (n = 1–2), 30 (n = 3), and 60 (n = 3) min after injection; blood was collected from the retro-orbital plexus with a heparinized glass Pasteur pipet, and the anesthetized animal was sacrificed by cervical dislocation. Blood plasma was obtained by centrifugation of the whole blood (8000 rpm, 4 °C, 2 min). […] From the measured data, the uptake of the activity in the different tissues and organs at the different time points p.i. was calculated as a percentage of injected dose per gram of tissue (% ID/g) and standardized uptake values (SUV).

The nature of data set [2]: In vivo metabolism in naïve mice (radio-RP-HPLC and radio-MLC of plasma and brain). Also on record: species or system CD-1 mice. To be noted: 30 min p.i., i.v.; for parent radioligand fraction in brain: mouse brain; for parent radioligand fraction in plasma: mouse plasma. Here is the method:
The metabolic stability of [ ^ 18 F]-SK60 was investigated ex vivo by radio-RP-HPLC and radio-micellar-HPLC (MLC) analyses of plasma and brain samples obtained from naïve female mice (n = 3) at 30 min post intravenous injection (p.i.). For the preparation of the RP-HPLC samples, two solvent systems MeCN/water (9/1; v/v) and MeOH/water (9/1; v/v) were tested for activity extraction from the plasma and brain samples. With both systems, recoveries of higher than 95% could be obtained. […] For the radio-MLC analyses, the brain and plasma samples were treated with sodium dodecyl sulfate and directly injected into the MLC system. Despite the slightly different elution profile compared to the RP-HPLC system caused by different separation mechanisms, the quantification of the peaks gave similar results (Figure B). Altogether, the results obtained with these two complementary systems indicate a high metabolic stability of [ ^ 18 F]-SK60 in mice without the formation of brain-penetrable radiometabolites.
[ ^ 18 F]-SK60 (24.3 ± 2.89 MBq) diluted in 200 μL of sterile isotonic saline was injected into the tail vein of restrained, awake mice. Thirty min after injection, animals were anesthetized with isoflurane, blood was collected from the retro-orbital plexus with a heparinized glass Pasteur pipet, and the anesthetized animal was sacrificed by cervical dislocation. Blood plasma was obtained by centrifugation of the whole blood (8000 rpm, 4 °C, 2 min). The brain was isolated, rapidly rinsed with 1 mL isotonic saline to remove superficial blood, and finally homogenized in 1 mL deionized water in an ice–water bath (Potter B. Braun, 1000 rpm, 10 strokes).
Protein precipitation and extraction were performed by using an ice-cold MeCN/water (9:1 v/v) or MeOH/water (9:1 v/v) mixture at a 4:1 (v/v) solvent-to-sample ratio for plasma or brain homogenates. Samples were vortexed for 3 min, equilibrated on ice for 5 min, and centrifuged at 10,000 rpm for 5 min. […] Combined supernatants were concentrated under nitrogen at 75 °C to ∼100 μL and analyzed via radio-HPLC using a Reprosil-Pur 120 C18-AQ column with a gradient MeCN/20 mM NH4OAcaq (pH 6.8) elution (gradient: eluent A 10% MeCN/20 mM NH4OAcaq.; eluent B 90% MeCN/20 mM NH4OAcaq.; 0–5 min 100% A, 5–17 min up to 100% B, 17–26 min 100% B, 26–27 min up to 100% A, 27–30 min 100% A). […]
For the preparation of the MLC samples, mouse plasma (20–50 μL, 2–3 kBq) was dissolved in 200 μL of 200 mM aqueous sodium dodecyl sulfate (SDS) and injected into the MLC system. […] The MLC system consisted of a JASCO PU-980 pump, an AS-2055Plus autoinjector with a 2 mL sample loop, and a UV-1575 detector coupled with a γ radioactivity HPLC detector (Gabi Star, raytest Isotopenmessgeräte GmbH; Straubenhardt; Germany). […]

Where “and” joins values, the source holds several entries; their conditions need not be identical. Equal entries are not always repeated.

One compound from article PMC12257540, “From Inhibitors to PET: SAR-Based Development of [^18F]SK60 for mIDH1 Imaging” (Journal of Medicinal Chemistry, 2025) can be followed below.

With `Cc1cccc(NC(=O)c2nn(Cc3ccc([18F])cc3)c3c2CN(C(=O)c2ccc[nH]2)CC3(C)C)c1` [[18F]SK60], the “activity in kidneys and bladder” value in data set [1] (kidneys and bladder, 60 min p.i.) is listed as under 1 SUVmean. This compound also showed an accumulation in liver in data set [1] (liver, 5 min p.i.) of about 7 SUVmean. For the same compound, the “accumulation in small intestine” value in data set [1] (small intestine, 60 min p.i.) is listed as about 13 SUVmean. In addition, the “parent radioligand fraction in brain” value in data set [2] (MLC) and in data set [2] (RP-HPLC) was 100% in each case. Also, the “parent radioligand fraction in plasma” value was 79% in data set [2] (MLC); 80 ± 2% and 80% in data set [2] (RP-HPLC).
